In patent US7091211B2, “Cyclopentyl modulators of chemokine receptor activity” (Merck & Co., Inc., priority 2003, dated 2006):
Where a name gives a salt, the structure may show the parent alone.

Each compound was assayed against T1, CCR3 (Homo sapiens, UniProt P51677) (assay: Assay for determining CCR3 binding activity). Conditions: assay disclosed in U.S. Pat. No. 6,303,593 or 6,538,002.
T1 sequence (P51677 1-355): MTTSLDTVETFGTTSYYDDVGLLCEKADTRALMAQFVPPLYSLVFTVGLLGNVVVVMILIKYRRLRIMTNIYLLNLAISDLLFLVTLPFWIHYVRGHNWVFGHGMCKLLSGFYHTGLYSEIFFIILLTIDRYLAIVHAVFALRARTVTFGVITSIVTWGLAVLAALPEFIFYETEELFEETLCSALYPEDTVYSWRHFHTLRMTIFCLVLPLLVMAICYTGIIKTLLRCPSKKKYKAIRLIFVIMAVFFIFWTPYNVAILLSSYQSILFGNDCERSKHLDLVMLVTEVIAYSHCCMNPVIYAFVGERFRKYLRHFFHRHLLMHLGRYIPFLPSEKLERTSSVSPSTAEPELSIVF
From the text: Cell lines for expressing the receptor of interest include those naturally expressing the receptor, such as […] or THP-1, or a cell engineered to express a recombinant receptor, such as CHO, RBL-2H3, or HEK-293. For example, a CCR3 transfected AML14.3D10 cell line has been placed on restricted deposit with American Type Culture Collection as ATCC No. CRL-12079.
The CCR3 binding activity of representative compounds of the present invention can be determined via the assay disclosed in U.S. Pat. No. 6,303,593 or U.S. Pat. No. 6,538,002.
`CCn1cc2c(n1)CCC21CCN(C[C@H]2C[C@H](N(C)[C@@H](C(=O)O)C(C)C)C[C@@H]2c2cccc(F)c2)CC1` [Example 15, N-Methyl-N-(1-(R)-3-(S)-((2-ethyl-5,6 dihydrospiro[cyclopentapyrazole-4(2H),4′-piperidin-1′-yl])methyl)-4-(S)-(3-fluorophenyl)cyclopent-1-yl)-(R)-valine trihydrochloride salt] was tested, and the IC50 was under 10 µM. `CCc1nn(C)c2c1CCC21CCN(C[C@H]2C[C@H](N(C)[C@@H](C(=O)O)C(C)C)C[C@@H]2c2cccc(F)c2)CC1` [Example 3, N-Methyl-N-(1-(R)-3-(S)-((3-ethyl-1-methyl-4,5-dihydrospiro[cyclopentapyrazole-6(1H),4′-piperidin-1′-yl])methyl)4-(S)-(3-fluorophenyl)cyclopent-1-yl)-(R)-valine trihydrochloride salt] showed an IC50 of under 10 µM. In the case of `CCc1nn(CC)c2c1C1(CC2)CCN(C[C@H]2C[C@H](N(C)[C@@H](C(=O)O)C(C)C)C[C@@H]2c2cccc(F)c2)CC1` [Example 16, N-Methyl-N-(1-(R)-3-(S)-((1,3-diethyl-5,6 dihydrospiro[cyclopentapyrazole-4(1H),4′-piperidin-1′-yl])methyl)-4-(S)-(3-fluorophenyl)cyclopent-1-yl)-(R)-valine trihydrochloride salt], the IC50 is reported as under 10 µM. In the case of `CCc1nn(CC)c2c1CCC21CCN(C[C@H]2C[C@H]([C@H](NC(C)(C)CC)C(=O)O)C[C@@H]2c2cccc(F)c2)CC1` [Example 45, 2-(S)-(1-(R)-3-(S)-((1,3-Diethyl-4,5-dihydrospiro[cyclopentapyrazole-6(1H),4′-piperidin-1′-yl])methyl)-4-(S)-(3-fluorophenyl)cyclopent-1-yl)-2-(1,1-dimethylprop-1-ylamino)acetic acid trihydrochloride salt], the IC50 is reported as under 10 µM. `CCc1nn(CC)c2c1CCC21CCN(C[C@H]2C[C@H](N(C)[C@@H](C(=O)O)C(C)C)C[C@@H]2c2cccc(F)c2)CC1` [Example 1, N-Methyl-N-(1-(R)-3-(S)-((1,3-diethyl-4,5-dihydrospiro[cyclopentapyrazole-6(1H),4′-piperidin-1′-yl])methyl)-4-(S)-(3-fluorophenyl)cyclopent-1-yl)-(R)-valine trihydrochloride salt] gave an IC50 of under 10 µM. `CCc1nn(CC)c2c1CCC21CCN(C[C@H]2C[C@H](N(C)[C@@H](C(=O)O)C(C)C)C[C@@H]2c2ccc(F)c(F)c2)CC1` [Example 25, N-Methyl-N-(1-(R)-3-(S)-((1,3-diethyl-4,5-dihydrospiro[cyclopentapyrazole-6(1H),4′-piperidin-1′-yl])methyl)-4-(S)-(3,4-difluorophenyl)cyclopent-1-yl)-(R)-valine trihydrochloride salt] showed an IC50 of under 10 µM. For `CCc1nn(CC)c2c1CCC21CCN(C[C@H]2C[C@H](N(C)[C@@H](C(=O)O)C(C)(C)C)C[C@@H]2c2cccc(F)c2)CC1` [Example 20, N-Methyl-N-(1-(R)-3-(S)-((1,3-diethyl-4,5-dihydrospiro[cyclopentapyrazole-6(1H),4′-piperidin-1′-yl])methyl)-4-(S)-(3-fluorophenyl)cyclopent-1-yl)-(R)-t-butylglycine trihydrochloride salt], the IC50 was under 10 µM. For `CCc1c2c(nn1CC)C1(CC2)CCN(C[C@H]2C[C@H](N(C)[C@@H](C(=O)O)C(C)C)C[C@@H]2c2cccc(F)c2)CC1` [Example 2, N-Methyl-N-(1-(R)-3-(S)-((2,3-diethyl-4,5-dihydrospiro[cyclopentapyrazole-6(2H),4′-piperidin-1′-yl])methyl)-4-(S)-(3-fluorophenyl)cyclopent-1-yl)-(R)-valine trihydrochloride salt], the IC50 was under 10 µM. `CCn1ncc2c1C1(CC2)CCN(C[C@H]2C[C@H](N(C)[C@@H](C(=O)O)C(C)C)C[C@@H]2c2cccc(F)c2)CC1` [Example 6, N-Methyl-N-(1-(R)-3-(S)-((1-ethyl-4,5-dihydrospiro[cyclopentapyrazole-6(1H),4′-piperidin-1′-yl])methyl)-4-(S)-(3-fluorophenyl)cyclopent-1-yl)-(R)-valine trihydrochloride salt] showed an IC50 of under 10 µM. Work on `CCc1onc2c1CCC21CCN(C[C@H]2C[C@H](N(C)[C@@H](C(=O)O)C(C)C)C[C@@H]2c2cccc(F)c2)CC1` [Example 12, N-Methyl-N-(1-(R)-3-(S)-((3-ethyl-4,5-dihydrospiro[6H-cyclopent[c]isoxazole-6,4′-piperidin-1′-yl])methyl)-4-(S)-(3-fluorophenyl)cyclopent-1-yl)-(R)-valine trihydrochloride salt] yielded an IC50 of under 10 µM. `CCc1nn(CC)c2c1CCC21CCN(C[C@H]2C[C@H](N(CC)[C@@H](C(=O)O)C(C)C)C[C@@H]2c2cccc(F)c2)CC1` [Example 18, N-Ethyl-N-(1-(R)-3-(S)-((1,3-diethyl-4,5-dihydrospiro[cyclopentapyrazole-6(1H),4′-piperidin-1′-yl])methyl)-4-(S)-(3-fluorophenyl)cyclopent-1-yl)-(R)-valine trihydrochloride salt] gave an IC50 of under 10 µM. For `CCc1nn(CC)c2c1CCC21CCN(C[C@H]2C[C@H]([C@@H](C(=O)O)N(C)C(C)(C)CC)C[C@@H]2c2cccc(F)c2)CC1` [Example 46, 2-(S)-(1-(R)-3-(S)-((1,3-Diethyl-4,5-dihydrospiro[cyclopentapyrazole-6(1H),4′-piperidin-1′-yl])methyl)-4-(S)-(3-fluorophenyl)cyclopent-1-yl)-2-((1,1-dimethylprop-1-yl)methylamino)acetic acid trihydrochloride salt], the IC50 was under 10 µM.
